# Where no end group is shown, it is not given here.
# Legend:
# [1] = molecular target: T1, GLP-1R (Homo sapiens, UniProt P43220); test: CRE luciferase reporter gene assay, membrane-tethered ligand co-transfected with GLP-1R; assay type: cell-based; conditions: CRE6X-LUC, relative to wild-type tethered construct; Figure 2A-B
# T1 construct: expressed in transfected cells; host or cells: HEK293 cells, transient transfection, pcDNA1.1 plasmid
# Description: Figure 2 Activity and selectivity of wild-type and G^7/K^7 derivatives of tGLP-1 and tEXE4. […] HEK 293 cells were transiently transfected with cDNAs encoding the GLP-1R or GIP-R, a tethered ligand, and a CRE6X-LUC reporter gene construct. Twenty four hours post-transfection, ligand-induced activity was quantified as described in Methods. […] Data represent the mean ± SEM from at least 4 independent experiments, each performed at least in quadruplicate.
# Receptor-mediated signaling was assessed using a previously described luciferase assay, [18]. In brief, HEK293 cells were plated at a density of 3000–6000 cells per well into clear-bottom, white 96-well plates and grown for 1–2 days to ∼80% confluency. […] Following ligand stimulation, the medium was gently aspirated, the cells were lysed and luciferase activity was quantified using a TopCount NTX after addition of Steadylite^R reagent (PerkinElmer, Boston, MA). […] Substrate cleavage (an index of β-galactosidase expression was quantified by measurement of optical density at 420 nm using a SpectraMax^R microplate reader (Molecular Devices, Sunnyvale, CA). Corresponding values were used to normalize the luciferase data for transfection efficiency.
# [2] = test system: HA-tagged GIP-R; test: HA-tagged GIP-R cell surface expression by ELISA; assay type: cell-based, human; conditions: HEK 293, HA-GIPR, ELISA 48 hours after transfection, soluble ligand added 24 h after transfection; Figure 4A
# Description: The impact of soluble peptide (A), tethered ligands (B) and the interaction between soluble and tethered ligands on HA-GIPR surface expression (C) was measured by ELISA. HEK 293 cells were transfected with a plasmid encoding the HA-tagged GIP-R, with or without increasing amounts of a tethered ligand cDNA. Twenty four hours after transfection, soluble ligands were added in selected wells, as indicated. In each experiment, receptor expression was evaluated 48 hours after transfection. […] Data represent the mean ± SEM from at least 4 independent experiments, each performed in 12 replicates. The expression of HA-GIPR in the absence vs presence of soluble or tethered ligand were compared by analysis of variance followed by Dunnett's post-test; significance, *, p<0.05; **, p<0.01.
# The surface expression levels of myc-tagged tethered ligands or HA-tagged GIP-Rs were assessed using a previously-established procedure [15], [18]. HEK293 cells grown in 96-well clear Primaria plates (BD Biosciences, Bedford, MA) were transiently transfected with either pcDNA1.1 or a cDNA encoding the relevant epitope-tagged proteins (tethered ligand and/or GIP-R). […] Light absorbance at 450 nm was quantified as a measure of protein expression) using a SpectraMax^R microplate reader.
# [3] = test system: GIPR-CHE; test: Confocal microscopy of GIPR-CHE subcellular distribution; assay type: cell-based, human; conditions: HEK 293, 18 hours treatment, Figure 5A
# Description: The impact of selected soluble peptides (A) and tethered ligands (B) on the subcellular distribution of GIPR-CHE was studied using confocal microscopy. HEK 293 cells were transiently transfected with a plasmid encoding the GIPR-CHE, with or without cDNA encoding a GFP-tagged tethered ligand. Twenty-four hours later, the cells were treated for 18 hours with a soluble peptide or the corresponding vehicle, as indicated. The subcellular distribution of receptor was then visualized.
# Cells were transfected with plasmids encoding GIPR-CHE and tEXE4-GFP or tGLP1-GFP. Twenty-four hours later, the cells were treated for 18 h with media containing 100 nM of soluble GIP, followed by confocal microscopy imaging.
# HEK293 cells were plated at a density of 150,000 cells per dish onto poly-L-lysine coated 35 mm glass bottom dishes (MatTek Corporation, Ashland, MA) and grown for 1 day to ∼60–80% confluency. Cells were then transfected with cDNA encoding GIPR-CHE and a GFP-tagged tethered ligand construct. In some experiments, soluble peptides were added 24 hours after transfection and cells were incubated at 37°C for an additional 18–24 hours before imaging. Forty eight hours following transfection, the cells were washed once with PBS and fixed with 4% paraformaldehyde in PBS for 10 minutes. […]
# [4] = molecular target: T2, GIP-R (Homo sapiens, UniProt P48546); test: CRE luciferase reporter gene assay, soluble ligands on GIP-R expressing cells; assay type: cell-based; conditions: soluble peptides, 6 hours stimulation; Figure 3B
# T2 construct: expressed in transfected cells; host or cells: HEK293 cells, transient transfection, pcDNA1.1 plasmid
# T2 sequence (P48546 22-466): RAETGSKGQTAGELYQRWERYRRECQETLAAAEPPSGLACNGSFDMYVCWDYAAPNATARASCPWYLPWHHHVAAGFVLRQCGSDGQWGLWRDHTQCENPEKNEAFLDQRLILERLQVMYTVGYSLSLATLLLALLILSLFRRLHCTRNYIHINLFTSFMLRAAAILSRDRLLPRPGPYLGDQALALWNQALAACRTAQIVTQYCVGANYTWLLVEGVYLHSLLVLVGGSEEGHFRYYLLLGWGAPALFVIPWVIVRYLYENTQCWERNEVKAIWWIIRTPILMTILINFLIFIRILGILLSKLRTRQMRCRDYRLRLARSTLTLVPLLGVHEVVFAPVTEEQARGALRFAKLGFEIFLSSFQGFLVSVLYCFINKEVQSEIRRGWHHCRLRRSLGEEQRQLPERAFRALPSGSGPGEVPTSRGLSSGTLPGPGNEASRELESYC
# Description: HEK293 cells were transiently transfected with cDNAs encoding the indicated receptor and a CRE6X-LUC reporter gene construct. Twenty four hours post-transfection, cells were stimulated for 6 hours with soluble peptides; ligand-induced activity was then quantified.
# Receptor-mediated signaling was assessed using a previously described luciferase assay [15], [18]. In brief, HEK293 cells were plated at a density of 3000–6000 cells per well into clear-bottom, white 96-well plates and grown for 1–2 days to ∼80% confluency. Cells were then transiently transfected using Lipofectamine^R reagent (Invitrogen, Carlsbad, CA) with cDNAs encoding (i) a GPCR (or the empty expression vector), (ii) a tethered ligand (where applicable), (iii) the CRE6X-LUC reporter gene and (iv) β-galactosidase (as a control for transfection efficiency). For experiments investigating the agonist function of soluble peptides, tethered ligand cDNA was not included in the transfection reaction. Twenty four hours after transfection, cells were incubated with or without selected soluble peptide in serum-free medium for 6 hours. Following ligand stimulation, the medium was gently aspirated, the cells were lysed and luciferase activity was quantified using a TopCount NTX after addition of Steadylite^R reagent (PerkinElmer, Boston, MA).
# T1 sequence (P43220 24-463): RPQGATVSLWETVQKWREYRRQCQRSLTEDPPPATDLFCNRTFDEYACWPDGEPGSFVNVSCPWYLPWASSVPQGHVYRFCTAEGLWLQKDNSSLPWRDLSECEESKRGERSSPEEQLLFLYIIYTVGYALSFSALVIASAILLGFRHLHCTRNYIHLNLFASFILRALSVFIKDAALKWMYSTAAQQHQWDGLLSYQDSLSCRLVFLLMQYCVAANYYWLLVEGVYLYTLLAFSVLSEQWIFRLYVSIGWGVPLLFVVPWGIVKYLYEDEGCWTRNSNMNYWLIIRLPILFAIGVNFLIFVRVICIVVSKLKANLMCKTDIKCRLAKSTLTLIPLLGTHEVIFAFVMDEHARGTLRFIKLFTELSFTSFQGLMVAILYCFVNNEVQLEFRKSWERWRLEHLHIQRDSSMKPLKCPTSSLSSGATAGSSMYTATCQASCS
agonist activity of soluble peptide at the GIP-R [4],Substance,tethered ligand-induced activity at the GLP-1R [1],GIP-R surface expression after prolonged incubation with soluble ligand [2],GIPR-CHE subcellular distribution after soluble peptide [3]
,"[G^7]tGLP-1: membrane-tethered GLP-1 with glycine at position 7 (GAEGTFTSDVSSYLEGQAAKEFIAWLVKGRG; also: fused with epitope tag, linkers, membrane-anchoring sequence; UniProt P01275 98-128, looked up, variant H7G)",activity comparable to the corresponding unmodified ligands,,
,glucose-dependent insulinotropic polypeptide [GIP],,markedly reduced,massive GIPR-CHE endocytosis
even lower potency agonist,glucagon-like peptide-1 [GLP-1],,no effect,

# Reference: PMC3173463, “Discovery of Dual-Action Membrane-Anchored Modulators of Incretin Receptors” (PLoS ONE, 2011)
